Data as given in US6511979B1, “Methods for treating conditions modulated by lactosylceramide” (Johns Hopkins University, priority 1998, dated 2003).
Entries after “also recorded” stand apart in the source; their conditions may differ.

Tests used:
GlcT-1 = target: T1, GlcT-1 (Homo sapiens, UniProt Q16739); conditions: reported in literature; cited from earlier work
T1 sequence (Q16739 1-394): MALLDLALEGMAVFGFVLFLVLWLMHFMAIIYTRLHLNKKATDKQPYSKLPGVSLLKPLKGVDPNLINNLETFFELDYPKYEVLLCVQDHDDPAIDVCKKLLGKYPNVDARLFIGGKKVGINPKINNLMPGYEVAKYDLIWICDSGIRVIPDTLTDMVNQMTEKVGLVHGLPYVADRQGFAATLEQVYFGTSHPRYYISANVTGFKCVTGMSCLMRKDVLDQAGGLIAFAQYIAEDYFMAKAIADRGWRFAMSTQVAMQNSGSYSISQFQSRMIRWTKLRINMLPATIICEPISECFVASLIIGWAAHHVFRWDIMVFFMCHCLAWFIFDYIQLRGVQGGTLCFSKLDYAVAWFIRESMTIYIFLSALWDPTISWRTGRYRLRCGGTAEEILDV

vascular cells = conditions: reported in literature; cited from earlier work
LacCer-responsive cells [1] = experiment: cell proliferation in LacCer-responsive cells; assay type: cell-based
Method: Preferably, the GalT-2 enhancing compound promotes cell proliferation by at least 10 to 25%, preferably at least about 50%, relative to a suitable control assay. In such an assay, between about 0.1 to 100 μM, preferably between about 1 to 50 μM of a desired GalT-2 enhancing compound is used. Exemplary cell proliferation assays include counting viable cells and monitoring activity of specified citric acid cycle enzymes such as lactate dehydrogenase. A preferred assay measures incorporation of one or more detectably-labeled nucleosides into DNA, e.g., by:
a) culturing suitable cells in medium and adding 1) a candidate GalT-2 enhancing compound and 2) a radiolabeled nucleoside such as ^3H-thymidine typically in an amount between about 0.1 to 100 μCi;
b) incubating the cells, e.g., for about 6-24 hours, and typically followed by washing; and
The measurement can be achieved by several methods including trichloroacetic acid (TCA) precipitation of labeled DNA on filters followed by scintillation counting. See e.g., Chatterjee, S., Biochem. Biophys. Res Comm. (1991) 181:554; Chatterjee, S. et al. (1982) Eur. J. Biochem. 120:435 for disclosure relating to this assay.
References herein to a “standard in vitro cell proliferation assay” or other similar phrase refer to an assay that includes the above steps a) through c). […]

GalT-2 = GalT-2 activity assay (standard in vitro GalT-2 assay / GalT-2 enzyme assay); assay type: cell-based
Excerpt: Preferred in vitro detection assays according to the present invention involve one or more steps associated with LacCer-related pathways. Such assays include the following steps 1) through 4):
1) culturing a population of LacCer-responsive cells with LacCer;
2) adding a known or candidate GalT-2 enhancing compound to the cells;
3) measuring activity of a cell molecule or function in the LacCer-related pathway; and
4) determining the effect of the known or candidate GalT-2 enhancing compound on the cell, e.g., by measuring activity of the cell molecule or function. Typically, the cell function will be one or more of cell proliferation, cell adhesion or expression of specified surface proteins on the cells. Examples of cell molecules include LacCer-responsive enzymes as specified below.
That assay can effectively measure the capacity of the GalT-2 enhancing compound to promote GalT-2 activity. References herein to a “standard in vitro GalT-2 assay” or other similar phrase refers to the above protocol of steps 1) through 4) when the specified cell molecule measured in step 3) above is GalT-2. As described in more detail below, other in vitro assays of the invention measure specified cell molecules in the LacCer-related steps or pathways. The in vitro assays of the present invention can be conducted with nearly any population of cells responsive to LacCer as provided below. […]

LacCer-responsive cells [2] = experiment: cell adhesion in LacCer-responsive cells; assay type: cell-based
Method: Preferably, the GalT-2 enhancing compound increases cell adhesion by at least 25%, preferably at least 50% or more relative to a suitable control assay. In such an assay, between about 0.1 to 100 μM, preferably between about 1 to 50 μM of a desired GalT-2 enhancing compound is used. For example, a preferred cell adhesion assay includes the following steps:
a) labeling a first population of immune cells, preferably certain leukocytes, with a detectable label which can be a chromatic, radioactive, luminescent (e.g., fluorescent, or phosphorescent), or enzymatic label capable of producing a detectable label, […]
References herein to a “standard in vitro cell adhesion assay” or other similar phrase refer to an assay that includes the above steps a) through c). The detection in step c) can be achieved by a variety of methods such as microscopy (by manually counting cells), particularly confocal microscopy and fluorescence-based photomicroscopy involving FACS; automated cell sorting techniques, immunological methods such as ELISA and RIA; and scintillation counting. […]
A preferred in vitro cell adhesion assay measures polymorphonuclear leukocytes (PMNs and/or monocytes) or platelets and increased endothelial cell adhesion before, during or after contact with a desired GalT-2 enhancing compound. […] Adhering cells are then quantitated by standard methods such as by use of a fluorescence plate reader. […]

SMILES | effect on GlcT-1 (GlcT-1) | effect on proliferation of vascular cells (vascular cells) | effect on proliferation in LacCer-responsive cells (LacCer-responsive cells [1]) | effect on GalT-2 activity (GalT-2) | effect on adhesion in LacCer-responsive cells (LacCer-responsive cells [2])
CCCCCCCCCC(=O)NC(CN1CCOCC1)C(O)c1ccccc1 [D-PDMP, 1-phenyl-2-decanolylamino-3-morpholino-1-propanol] | inhibits GlcT-1 | reduces proliferation of vascular cells |  |  | 
CCCCCCCCCC(=O)N[C@@H](CN1CCOCC1)C(O)c1ccccc1 (stereo partly drawn) [L-PDMP, L-1-phenyl-2-decanoylamino-3-morpholino-1-propanol] |  |  | increasing proliferation | increase the activity of GalT-2; also recorded: effectively stimulating GalT-2 | increasing proliferation and adhesion
